Assay results published in US10596127B2, “Composition for reducing the frequency of urination, method of making and use thereof” (WELLESLEY PHARMACEUTICALS, LLC, priority 2013, dated 2020).

Key:
[1] = tested on: COX2 expression by normal human bladder smooth muscle cells; test: Cell-based ELISA of total COX2 in normal human bladder smooth muscle cells; conditions: for effect on the effect of carbachol and LPS on COX2 levels: LPS-induced responses: analgesic at either 5 μM or 50 μM
Procedure: COX2 responses were analyzed by a Cell-Based ELISA using Human/mouse total COX2 immunoassay (R&D Systems), following the instructions of the manufacturer. Briefly, after cells fixation and permeabilization, a mouse anti-total COX2 and a rabbit anti-total GAPDH were added to the wells of the clear-bottom black 96-well cell culture microculture plates. After incubation and washes, an HRP-conjugated anti-mouse IgG and an AP-conjugated anti-rabbit IgG were added to the wells. Following another incubation and set of washes, the HRP- and AP-fluorogenic substrates were added. Finally, a Victor® V multilabel plate reader (PerkinElmer) was used to read the fluorescence emitted at 600 nm (COX2 fluorescence) and 450 nm (GAPDH fluorescence). Results are expressed as relative levels of total COX2 as determined by relative fluorescence unit (RFUs) and normalized to the housekeeping protein GAPDH.
(§1) Normal human bladder smooth muscle cells were isolated by enzymatic digestion from macroscopically normal pieces of human bladder. Cells were expended in vitro by culture at 37° C. in a 5% CO2 atmosphere in RPMI 1640 supplemented with 10% fetal bovine serum, 15 mM HEPES, 2 mM L-glutamine, 100 U/ml penicillin, and […] of streptomycin and passage once a week by treatment with trypsin to detach cells followed by reseeding in a new culture flask. The first week of culture, the culture medium was supplemented with 0.5 ng/ml epidermal growth factor, 2 ng/ml fibroblast growth factor, and 5 μg/ml insulin.
(§2) […] When no other effectors were added to the cells, 50 μl of RPMI 1640 without fetal bovine serum were added to the wells to adjust the final volume to 200 μl.
(§3) After 24 hours of culture, 150 μl of culture supernatants were collected, spun down for 2 min at 8,000 rpm at 4° C. to remove cells and debris and stored at −70° C. for analysis of Prostaglandin E2 (PGE2) responses by ELISA. Cells were fixed, permeabilized and blocked for detection of COX2 using a fluorogenic substrate. In selected experiment cells were stimulated 12 hours in vitro for analysis of COX2, PGE2 and cytokine responses.
(§4) COX2 and PGE2 responses were analyzed as described in Example 3. Cytokine responses were analyzed as described in Example 2.

[2] = tested on: PGE2 secretion by normal human bladder smooth muscle cells; test: PGE2 ELISA of normal human bladder smooth muscle cell supernatants; assay type: cell-based; conditions: for effect on the LPS-induced PGE2 responses: analgesic at either 5 μM or 50 μM
Procedure: Prostaglandin E2 responses were analyzed by a sequential competitive ELISA (R&D Systems). More specifically, culture supernatants or PGE2 standards were added to the wells of a 96-well polystyrene microplate coated with a goat anti-mouse polyclonal antibody. After one hour incubation on a microplate shaker, an HRP-conjugated PGE2 was added and plates incubated for an additional two hours at room temperature. The plates were then washed and HRP substrate solution added to each well. The color was allowed to develop for 30 min and the reaction stopped by addition sulfuric acid before reading the plate at 450 nm with wavelength correction at 570 nm. Results are expressed as mean pg/ml of PGE2.
as §1, §2, §3, §4

[3] = tested on: IL-6 secretion by normal human bladder smooth muscle cells; test: IL-6 ELISA of normal human bladder smooth muscle cell supernatants; assay type: cell-based; conditions: for IL-6 (pg/ml) Subject 1 / IL-6 (pg/ml) Subject 2: Carbachol 10^−3 M plus analgesic 50 μM; for IL-6 (pg/ml) Subject 1: carbachol alone 232, unstimulated <5, mean of duplicates; for IL-6 (pg/ml) Subject 2: carbachol alone 278, unstimulated <5; for effect on the effect of carbachol and LPS on IL-6 responses: LPS-induced responses: analgesic at either 5 μM or 50 μM
Procedure: Culture supernatants were subjected to cytokine-specific ELISA to determine IL-1β, IL-6 and TNF-α responses in cultures of macrophages treated with analgesic, LPS alone or a combination of LPS and analgesic. The assays were performed on Nunc MaxiSorp Immunoplates (Nunc) coated overnight with 100 μl of anti-mouse IL-6, TNF-α mAbs (BD Biosciences) or IL-1β mAb (R&D Systems) in 0.1 M sodium bicarbonate buffer (pH 9.5). After two washes with PBS (200 μl per well), 200 μl of PBS 3% BSA were added in each well (blocking) and the plates incubated for 2 hours at room temperature. Plates were washed again two times by addition of 200 μl per well, 100 μl of cytokine standards and serial dilutions of culture supernatants were added in duplicate and the plates were incubated overnight at 4° C. Finally, the plates were washed twice and incubated with 100 μl of secondary biotinylated anti-mouse IL-6, TNFα mAbs (BD Biosciences) or IL-1β (R&D Systems) followed by peroxidase-labelled goat anti-biotin mAb (Vector Laboratories). The colorimetric reaction was developed by the addition of 2,2′-azino-bis(3)-ethylbenzylthiazoline-6-sulfonic acid (ABTS) substrate and H2O2 (Sigma) and the absorbance measured at 415 nm with a Victor® V multilabel plate reader (PerkinElmer).
as §1
Bladder smooth muscle cells trypsinized and seeded in microculture plates at a cell density of 3×10^4 cells per well in 100 μl were treated with analgesic solutions (50 μl/well) either alone or together carbachol (10-Molar, 50 μl/well), as an example of non-inflammatory stimuli, or lipopolysaccharide (LPS) of Salmonella typhimurium (1 μg/ml, 50 μl/well), as an example of […] stimuli. When no other effectors were added to the cells, 50 μl of RPMI 1640 without fetal bovine serum were added to the wells to adjust the final volume to 200 μl.
as §3, §4

[4] = adult humans; cited from earlier work
[5] = tested on: TNFα secretion by normal human bladder smooth muscle cells; test: TNFα ELISA of normal human bladder smooth muscle cell supernatants; assay type: cell-based
[6] = Carbachol 10^−3 M plus analgesic 50 μM, carbachol alone 437, unstimulated 230, mean of duplicates
[7] = Carbachol 10^−3 M plus analgesic 50 μM, carbachol alone 462, unstimulated 199
[8] = LPS (10 μg/ml) plus analgesic 5 μM, LPS alone 633, unstimulated 199
[9] = LPS (10 μg/ml) plus analgesic 5 μM, LPS alone 672, unstimulated 230, mean of duplicates
[10] = LPS (10 μg/ml) plus analgesic 50 μM, LPS alone 633, unstimulated 199
[11] = LPS (10 μg/ml) plus analgesic 50 μM, LPS alone 672, unstimulated 230, mean of duplicates
[12] = Carbachol 10^−3 M plus analgesic 50 μM, carbachol alone 104, unstimulated <20.5
[13] = Carbachol 10^−3 M plus analgesic 50 μM, carbachol alone 129, unstimulated <20.5, mean of duplicates
[14] = LPS (10 μg/ml) plus analgesic 5 μM, LPS alone 998
[15] = LPS (10 μg/ml) plus analgesic 5 μM, LPS alone 1125, mean of duplicates
[16] = LPS (10 μg/ml) plus analgesic 50 μM, LPS alone 998
[17] = LPS (10 μg/ml) plus analgesic 50 μM, LPS alone 1125, mean of duplicates
[18] = LPS (10 μg/ml) plus analgesic 5 μM, LPS alone 4107
[19] = LPS (10 μg/ml) plus analgesic 5 μM, LPS alone 5725, mean of duplicates
[20] = LPS (10 μg/ml) plus analgesic 50 μM, LPS alone 4107
[21] = LPS (10 μg/ml) plus analgesic 50 μM, LPS alone 5725, mean of duplicates
[22] = stimulus alone, no analgesic (Carbachol 10^−3 M; LPS 10 μg/ml), unstimulated <20.5
[23] = stimulus alone, no analgesic (Carbachol 10^−3 M; LPS 10 μg/ml), unstimulated <5

Structure (SMILES)	Total COX2 levels (Normalized RFUs) subject 1 [1, 6]	Total COX2 levels (Normalized RFUs) subject 2 [1, 7]	Total COX2 levels (Normalized RFUs) subject 2 [1, 8]	Total COX2 levels (Normalized RFUs) subject 1 [1, 9]	Total COX2 levels (Normalized RFUs) subject 2 [1, 10]	PGE2 levels (pg/ml) Subject 2 [2, 12]	PGE2 levels (pg/ml) Subject 1 [2, 13]	PGE2 levels (pg/ml) Subject 2 [2, 14]	PGE2 levels (pg/ml) Subject 1 [2, 15]	PGE2 levels (pg/ml) Subject 2 [2, 16]	PGE2 levels (pg/ml) Subject 1 [2, 17]	effect on the LPS-induced PGE2 responses [2]	IL-6 (pg/ml) Subject 1 [3]	IL-6 (pg/ml) Subject 2 [3]	effect on the effect of carbachol and LPS on IL-6 responses [3]	Maximum serum levels after oral therapeutic doses [4]	TNFα (pg/ml) Subject 2 [5, 18]	TNFα (pg/ml) Subject 1 [5, 19]	TNFα (pg/ml) Subject 2 [5, 20]	TNFα (pg/ml) Subject 1 [5, 21]	also measured
COc1ccc2cc([C@H](C)C(=O)O)ccc2c1 [Naproxen]	296 Normalized RFUs	354 Normalized RFUs	501 Normalized RFUs	458 Normalized RFUs	458 Normalized RFUs	66 pg/mL	77 pg/mL	506 pg/mL	859 pg/mL	523 pg/mL	819 pg/mL	suppress	114 pg/mL	127 pg/mL	suppress	≤ 60 mg/L	2215 pg/mL	2591 pg/mL	2192 pg/mL	2427 pg/mL	Total COX2 levels (Normalized RFUs) subject 1 [1, 11]: 409 Normalized RFUs; effect on the effect of carbachol and LPS on COX2 levels [1]: suppress
C[N+](C)(C)CCOC(N)=O [Carbachol, carbachol]																					COX2 responses to stimulus alone ([1]; no analgesic): induced low, but significant COX2 responses; Total COX2 levels (Normalized RFUs) subject 2 ([1]; stimulus alone, no analgesic (Carbachol 10^−3 M; LPS 10 μg/ml), unstimulated 199): 462 Normalized RFUs; Total COX2 levels (Normalized RFUs) subject 1 ([1]; stimulus alone, no analgesic (Carbachol 10^−3 M; LPS 10 μg/ml), unstimulated 230): 437 Normalized RFUs; PGE2 production in response to stimulus alone ([2]; no analgesic): induced production of PGE2; PGE2 levels (pg/ml) Subject 1 [2, 22]: 129 pg/mL; PGE2 levels (pg/ml) Subject 2 [2, 22]: 104 pg/mL; IL-6 responses to stimulus alone ([3]; no analgesic): induced low, but significant TNFα and IL-6 responses; TNFα (pg/ml) Subject 1 [5, 23]: 350 pg/mL; TNFα (pg/ml) Subject 2 [5, 23]: 286 pg/mL
CC(C)Cc1ccc(C(C)C(=O)O)cc1 (stereo not drawn) [Ibuprofen, ibuprofen]						73 pg/mL	84 pg/mL	527 pg/mL	824 pg/mL	501 pg/mL	821 pg/mL	suppress	107 pg/mL	118 pg/mL	suppress	24 to 32 mg/L	2288 pg/mL	2733 pg/mL	1997 pg/mL	2603 pg/mL	
CC(=O)Nc1ccc(O)cc1 [Acetaminophen, N-acetyl-para-aminophenol]	298 Normalized RFUs	310 Normalized RFUs	457 Normalized RFUs	428 Normalized RFUs	509 Normalized RFUs	62 pg/mL	76 pg/mL	542 pg/mL	817 pg/mL	540 pg/mL	803 pg/mL	suppress	119 pg/mL	135 pg/mL	suppress	11 to 18 mg/L	2267 pg/mL	2338 pg/mL	2056 pg/mL	2184 pg/mL	Total COX2 levels (Normalized RFUs) subject 1 [1, 11]: 399 Normalized RFUs; effect on the effect of carbachol and LPS on COX2 levels [1]: suppress
CC(=O)Oc1ccccc1C(=O)O [Aspirin, Acetylsalicylic acid]	312 Normalized RFUs	297 Normalized RFUs	491 Normalized RFUs	472 Normalized RFUs	484 Normalized RFUs	59 pg/mL	89 pg/mL	598 pg/mL	838 pg/mL	534 pg/mL	812 pg/mL	suppress	95 pg/mL	146 pg/mL	suppress	30 to 100 mg/L	2187 pg/mL	2479 pg/mL	2089 pg/mL	2266 pg/mL	Total COX2 levels (Normalized RFUs) subject 1 [1, 11]: 413 Normalized RFUs; effect on the effect of carbachol and LPS on COX2 levels [1]: suppress
